Experimental findings from patent US11548899B2, “Fused 1,4-oxazepines and related analogs as BET bromodomain inhibitors” (THE REGENTS OF THE UNIVERSITY OF MICHIGAN, priority 2016, dated 2023) are described below.

Several values for one entry are separate records, joined by “and”; a condition that tells them apart may be missing. Identical values can stand only once. Like-named read-outs stand apart in the source and are kept apart here.

In one assay the test system is MOLM-13. The experiment in a line: Cell growth inhibition, 4-day proliferation assay, MOLM-13. In kind it is cell-based. The settings on record: read-out: Cell Viability (IC50, μM) MOLM-13. Here is the method: (§1) The effect of representative Compounds of the Disclosure on cell viability was determined in a 4-day proliferation assay. Cells were maintained in the appropriate culture medium with 10% FBS at 37° C. and an atmosphere of 5% CO2. All the cell lines were used within three months of thawing fresh vials.
(§2) Cells were seeded in 96-well flat bottom (Corning COSTAR, Corning, N.Y., cat #3595) or white opaque cell culture plates (BD Falcon, cat #353296) at a density of 3,000-10,000 cells/well in 75 μl of culture medium. Compounds were serially diluted in the appropriate medium, and 75 μl of the diluted compounds were added to the appropriate wells of the cell plate. After the addition of compounds, the cells were incubated at 37° C. in an atmosphere of 5% CO2 for 4 days. Cell viability was determined using the CellTiter-Glo® Luminescent Cell Viability Assay Kit (Promega, Madison, Wis.) for leukemia cells and WST (2-(2-methoxy-4-nitrophenyl)-3-(4-nitrophenyl)-5-(2,4-disulfophenyl)-2H-tetrazolium, monosodium salt) Cell Counting-8 Kit (Dojindo Molecular Technologies, Inc., Rockville, Md.) for adhenrent cells according to the manufacturers' instructions. […]
(§3) For CellTiter-Glo assay (suspension cells), 100 μl of CellTiter-Glo® Reagent was added to each well, and then the plates were incubated at room temperature for 10-20 minutes. The luminescent signal was measured using a Tecan Infinite M1000 multimode microplate reader (Tecan, Morrisville, N.C.). The readings were normalized to the DMSO-treated cells and the IC50 was calculated by nonlinear regression (four parameters sigmoid fitted with variable slope, least squares fit, and no constraint) analysis using the GraphPad Prism 5 software. See US 2014/0256706.

The test system of a further assay is RS4-11. Description: Cell growth inhibition, 4-day proliferation assay, RS4-11. As to conditions: 4 days incubation, RS4-11 cells, read-out: Cell Viability (IC50, μM) RS4-11. Format: cell-based. On the procedure:
as §1, §2, §3

The target in another assay is T1, recombinant BRD4 BD1 (Homo sapiens, UniProt O60885).
T1 construct: recombinant BRD4 BD1 and BRD4 BD2 proteins
The experiment in a line: Competitive fluorescence-polarization (FP) binding assay, BRD4 BD1. The settings on record: protein 10 nM, probe 1.5 nM.

The target of another assay is T2, recombinant BRD4 BD2 (Homo sapiens, UniProt O60885).
T2 construct: recombinant BRD4 BD1 and BRD4 BD2 proteins
Description: Competitive fluorescence-polarization (FP) binding assay, BRD4 BD2. The settings on record: protein 6 nM, probe 1.5 nM.

Setting [1] is: 4 days incubation, MOLM-13 cells.
The mark [2] stands for this setting: Homo sapiens, MOLM-13, 96 h, 4 days incubation, MOLM-13 cells.
Where [3] appears, read: FP competitive binding, read-out: IC50 (nM) BRD4 BD1.

As usually defined, the IC50 is the concentration needed to halve the response being measured.

Description for recombinant BRD4 BD1: Fluorescence Polarization (FP) competitive binding studies were carried out using a FAM labeled fluorescent probe, see Cpd. […] Equilibrium dissociation constants (Kd) values of the fluorescent probe to BRD4 BD1 and BD2 proteins were determined from protein saturation experiments by monitoring the total fluorescence polarization of mixtures composed with the fluorescent probe at a fixed concentration and proteins with increasing concentrations up to full saturation. […] Plates were incubated at room temperature for 30 minutes with gentle shaking to assure equilibrium.
The IC50 and Ki values of compounds were determined in a competitive binding experiment. […] Mixtures of 10 μl of the tested compounds in assay buffer with 40% Ethylene Glycol and 190 μl of preincubated protein/probe complex solution in the assay buffer (100 mM potassium phosphate, pH 6.5, 0.01% Triton X-100) were added into assay plates which were incubated at room temperature for 30 minutes with gentle shaking. Final concentrations of proteins were 10 and 6 nM in assays for BRD4 BD1 and BD2, respectively. […] FP values were measured as described above. IC50 values were determined by nonlinear regression fitting of the competition curves.
Description for recombinant BRD4 BD2: Fluorescence Polarization (FP) competitive binding studies were carried out using a FAM labeled fluorescent probe, see Cpd. […] Equilibrium dissociation constants (Kd) values of the fluorescent probe to BRD4 BD1 and BD2 proteins were determined from protein saturation experiments by monitoring the total fluorescence polarization of mixtures composed with the fluorescent probe at a fixed concentration and proteins with increasing concentrations up to full saturation. Serial dilutions of testing proteins were mixed with the fluorescent probe to a final volume of 200 μl in the assay buffer (100 mM phosphate buffer, pH=6.5, 0.01% Triton X-100 (Sigma, 282103) being added right before assays). Final fluorescent probe concentration was 1.5 nM for both proteins. Plates were incubated at room temperature for 30 minutes with gentle shaking to assure equilibrium. FP values in millipolarization units (mP) were measured using the Infinite M-1000 plate reader (Tecan U.S., Research Triangle Park, N.C.) in Microfluor 1 96-well, black, round-bottom plates (Thermo Scientific, Waltham, Mass.) at an excitation wavelength of 485 nm and an emission wavelength of 530 nm.
The IC50 and Ki values of compounds were determined in a competitive binding experiment. […] Mixtures of 10 μl of the tested compounds in assay buffer with 40% Ethylene Glycol and 190 μl of preincubated protein/probe complex solution in the assay buffer (100 mM potassium phosphate, pH 6.5, 0.01% Triton X-100) were added into assay plates which were incubated at room temperature for 30 minutes with gentle shaking. Final concentrations of proteins were 10 and 6 nM in assays for BRD4 BD1 and BD2, respectively. Final probe concentration is 1.5 nM in both assays. […] FP values were measured as described above. IC50 values were determined by nonlinear regression fitting of the competition curves.

As for `Cc1sc2c(c1Cc1ccccc1)COCc1nnc(C)n1-2` [Cpd. No. 4, 3-benzyl-2,9-dimethyl-4H,6H-thieno[2,3-e][1,2,4]triazolo[3,4-c][1,4]oxazepine], the IC50 in the assay with MOLM-13 (setting [1]) came to 0.9 µM; in the assay on MOLM-13 (setting [2]), 0.8 µM; in the assay on RS4-11 (Homo sapiens, RS4-11, 96 h), 1.7 µM.

Turning to `Cc1sc2c(c1-c1ccnc3ccccc13)COCc1nnc(C)n1-2` [Cpd. No. 5, 2,9-dimethyl-3-(quinolin-4-yl)-4H,6H-thieno[2,3-e][1,2,4]triazolo[3,4-c][1,4]oxazepine], the IC50 at recombinant BRD4 BD1 (setting [3]) was 1370 nM; at recombinant BRD4 BD2, 1070 nM; with RS4-11 (Homo sapiens, RS4-11, 96 h), more than 5 µM.

Turning to `Cc1sc2c(c1Cc1cccc(Cl)c1)COCc1nnc(C)n1-2` [Cpd. No. 8, 3-(3-chlorobenzyl)-2,9-dimethyl-4H,6H-thieno[2,3-e][1,2,4]triazolo[3,4-c][1,4]oxazepine], the results for the 50% inhibitory concentration (IC50) with MOLM-13 (setting [2]), on recombinant BRD4 BD1 (setting [3]) and at recombinant BRD4 BD2 were 2.5 µM, 311 nM and 285 nM, respectively.

As to `Cc1sc2c(c1Cc1ccc(Cl)cc1)COCc1nnc(C)n1-2` [Cpd. No. 9, 3-(4-chlorobenzyl)-2,9-dimethyl-4H,6H-thieno[2,3-e][1,2,4]triazolo[3,4-c][1,4]oxazepine], the IC50 in the assay with MOLM-13 (setting [2]) worked out at 1 µM; at recombinant BRD4 BD1 (setting [3]), 88.4 nM; on recombinant BRD4 BD2, 271 nM.

`Cc1sc2c(c1Cc1ccccc1Cl)COCc1nnc(C)n1-2` [Cpd. No. 10, 3-(2-chlorobenzyl)-2,9-dimethyl-4H,6H-thieno[2,3-e][1,2,4]triazolo[3,4-c][1,4]oxazepine]: the IC50 stood at 3.4 µM with MOLM-13 (setting [2]), 263 nM on recombinant BRD4 BD1 (setting [3]) and 312 nM at recombinant BRD4 BD2.

As for `Cc1sc2c(c1Cc1ccccc1)CN(C(=O)OCc1ccccc1)[C@H](C)c1nnc(C)n1-2` [Cpd. No. 16, benzyl (R)-3-benzyl-2,6,9-trimethyl-4H-thieno[3,2-f][1,2,4]triazolo[4,3-a][1,4]diazepine-5(6H)-carboxylate], the IC50 is 2.8 µM in the assay with MOLM-13 (setting [2]), 229 nM on recombinant BRD4 BD1 (setting [3]) and 326 nM on recombinant BRD4 BD2.

Take `CCOC(=O)N1Cc2c(sc(C)c2Cc2ccccc2)-n2c(C)nnc2[C@@H]1C` [Cpd. No. 18, ethyl (S)-3-benzyl-2,6,9-trimethyl-4H-thieno[3,2-f][1,2,4]triazolo[4,3-a][1,4]diazepine-5(6H)-carboxylate]: the IC50 stood at 4.3 µM in the assay on MOLM-13 (Homo sapiens, MOLM-13, 96 h); 532 nM at recombinant BRD4 BD1 (setting [3]); 601 nM on recombinant BRD4 BD2.

Regarding `Cc1sc2c(c1Cc1ccccc1)CN(C)[C@@H](C)c1nnc(C)n1-2` [Cpd. No. 20, (S)-3-benzyl-2,5,6,9-tetramethyl-5,6-dihydro-4H-thieno[3,2-f][1,2,4]triazolo[4,3-a][1,4]diazepine], the IC50 in the assay on MOLM-13 (setting [2]) was 1.3 µM; on recombinant BRD4 BD1 (setting [3]), 235 nM and 340 nM; at recombinant BRD4 BD2 it was 636 nM and 1210 nM.

Consider `C=C(c1ccccc1)c1c(C)sc2c1COCc1nnc(C)n1-2` [Cpd. No. 24, 2,9-dimethyl-3-(1-phenylvinyl)-4H,6H-thieno[2,3-e][1,2,4]triazolo[3,4-c][1,4]oxazepine], for which the 50% inhibitory concentration (IC50) was 3.4 µM in the assay with MOLM-13 (setting [2]), 491 nM at recombinant BRD4 BD1 (setting [3]) and 492 nM on recombinant BRD4 BD2.

As to `Cc1sc2c(c1Cc1ccccc1)CN(CC1CC1)[C@@H](C)c1nnc(C)n1-2` [Cpd. No. 27, (S)-3-benzyl-5-(cyclopropylmethyl)-2,6,9-trimethyl-5,6-dihydro-4H-thieno[3,2-f][1,2,4]triazolo[4,3-a][1,4]diazepine], the IC50 with MOLM-13 (setting [2]) is more than 5 µM; at recombinant BRD4 BD1 (setting [3]) it was 611 nM; at recombinant BRD4 BD2 it was 2610 nM.

On to `Cc1sc2c(c1C(C)c1ccccc1)COCc1nnc(C)n1-2` (centres unmarked) [Cpd. No. 28, 2,9-dimethyl-3-(1-phenylethyl)-4H,6H-thieno[2,3-e][1,2,4]triazolo[3,4-c][1,4]oxazepine], for which the IC50 in the assay with MOLM-13 (setting [2]) amounted to 4.7 µM; at recombinant BRD4 BD1 (setting [3]), 772 nM; at recombinant BRD4 BD2, 749 nM.

For `Cc1nnc2n1-c1sc(Br)c(Cc3ccccc3)c1COC2` [Cpd. No. 31, 3-benzyl-2-bromo-9-methyl-4H,6H-thieno[2,3-e][1,2,4]triazolo[3,4-c][1,4]oxazepine], the IC50 in the assay on MOLM-13 (setting [1]) is 1.7 µM; with MOLM-13 (setting [2]) it was 1.4 µM; on recombinant BRD4 BD1 (setting [3]), 209 nM and 265 nM and 352 nM.

As for `Cc1nnc2n1-c1sc(-c3ccc(N)nc3)c(Cc3ccccc3)c1COC2` [Cpd. No. 32, 5-(3-benzyl-9-methyl-4H,6H-thieno[2,3-e][1,2,4]triazolo[3,4-c][1,4]oxazepin-2-yl)pyridin-2-amine], the IC50 turned out to be 1.9 µM in the assay with MOLM-13 (setting [2]) and 294 nM on recombinant BRD4 BD1 (setting [3]).

With `C#Cc1sc2c(c1Cc1ccccc1)COCc1nnc(C)n1-2` [Cpd. No. 33, 3-benzyl-2-ethynyl-9-methyl-4H,6H-thieno[2,3-e][1,2,4]triazolo[3,4-c][1,4]oxazepine], the IC50 with MOLM-13 (setting [2]) turned out to be 1 µM.

Turning to `Cc1sc2c(c1Cc1ccccc1)CN(C)[C@H](C)c1nnc(C)n1-2` [Cpd. No. 34, (R)-3-benzyl-2,5,6,9-tetramethyl-5,6-dihydro-4H-thieno[3,2-f][1,2,4]triazolo[4,3-a][1,4]diazepine], the IC50 in the assay on MOLM-13 (setting [2]) was 1 µM.

Turning to `Cc1sc2c(c1Cc1ccccc1)CN(C)Cc1nnc(C)n1-2` [Cpd. No. 35, 3-benzyl-2,5,9-trimethyl-5,6-dihydro-4H-thieno[3,2-f][1,2,4]triazolo[4,3-a][1,4]diazepine], the results for the IC50 in the assay on MOLM-13 (setting [2]) and at recombinant BRD4 BD1 (setting [3]) were 2.2 µM and 602 nM, respectively.

In the case of `Cc1nnc2n1-c1cccc(C(C)c3ccccc3)c1COC2` (centres unmarked) [Cpd. No. 46, 1-methyl-7-(1-phenylethyl)-4,6-dihydrobenzo[e][1,2,4]triazolo[3,4-c][1,4]oxazepine], the results for the IC50 in the assay with MOLM-13 (setting [2]), at recombinant BRD4 BD1 (setting [3]) and on recombinant BRD4 BD2 were 2.9 µM, 807 nM and 268 nM, respectively.

Take `Cc1nnc2n1-c1cccc(C3(c4ccccc4)CC3)c1COC2` [Cpd. No. 48, 1-methyl-7-(1-phenylcyclopropyl)-4,6-dihydrobenzo[e][1,2,4]triazolo[3,4-c][1,4]oxazepine]: the IC50 in the assay with MOLM-13 (setting [2]) was 1.4 µM; at recombinant BRD4 BD1 (setting [3]), 454 nM and 696 nM; on recombinant BRD4 BD2, 71.6 nM and 137 nM.

As for `Cc1nnc2n1-c1cccc(C3=CCCc4ccccc43)c1COC2` [Cpd. No. 49, 7-(3,4-dihydronaphthalen-1-yl)-1-methyl-4,6-dihydrobenzo[e][1,2,4]triazolo[3,4-c][1,4]oxazepine], the IC50 is more than 5 µM with MOLM-13 (setting [2]); 2350 nM and 1820 nM on recombinant BRD4 BD1 (setting [3]); 271 nM and 175 nM at recombinant BRD4 BD2.

`Cc1nnc2n1-c1cccc(C3CCCc4ccccc43)c1COC2` (centres unmarked) [Cpd. No. 50, 1-methyl-7-(1,2,3,4-tetrahydronaphthalen-1-yl)-4,6-dihydrobenzo[e][1,2,4]triazolo[3,4-c][1,4]oxazepine]: the IC50 in the assay with MOLM-13 (setting [2]) was 2.7 µM; at recombinant BRD4 BD1 (setting [3]), 425 nM and 585 nM; at recombinant BRD4 BD2, 146 nM and 247 nM.

With `Cc1nnc2n1-c1ccc(Cl)c(Cc3ccccc3)c1COC2` [Cpd. No. 71, 7-benzyl-8-chloro-1-methyl-4,6-dihydrobenzo[e][1,2,4]triazolo[3,4-c][1,4]oxazepine], the IC50 in the assay on MOLM-13 (Homo sapiens, MOLM-13, 96 h) stood at 3.8 µM; at recombinant BRD4 BD1 (IC50 (nM) BRD4 BD1, FP competitive binding), 864 nM.

As for `Cc1nnc2n1-c1ccc(-c3cnn(C)c3)c(Cc3ccccc3)c1COC2` [Cpd. No. 73, 7-benzyl-1-methyl-8-(1-methyl-1H-pyrazol-4-yl)-4,6-dihydrobenzo[e][1,2,4]triazolo[3,4-c][1,4]oxazepine], the IC50 in the assay with MOLM-13 (setting [2]) was 1.1 µM; at recombinant BRD4 BD1 (setting [3]), 234 nM and 366 nM.

For `Cc1nnc2n1-c1ccc(C#CCCO)c(Cc3ccccc3)c1COC2` [Cpd. No. 84, 4-(7-benzyl-1-methyl-4,6-dihydrobenzo[e][1,2,4]triazolo[3,4-c][1,4]oxazepin-8-yl)but-3-yn-1-ol], the half-inhibitory concentration (IC50) with MOLM-13 (setting [2]) was 0.7 µM; with RS4-11 (Homo sapiens, RS4-11, 96 h) it was 1 µM.

`Cc1nnc2n1-c1sc(C#Cc3cnn(C)c3)c(Cc3ccc(F)cc3)c1COC2` [Cpd. No. 111, 3-(4-fluorobenzyl)-9-methyl-2-((1-methyl-H-pyrazol-4-yl)ethynyl)-4H,6H-thieno[2,3-e][1,2,4]triazolo[3,4-c][1,4]oxazepine]: the IC50 on recombinant BRD4 BD1 (setting [3]) is 5.4 nM and 10.5 nM and 12.9 nM; at recombinant BRD4 BD2, 112 nM and 142 nM and 127 nM; in the assay with RS4-11, 0.25 µM; with RS4-11 (Homo sapiens, RS4-11, 96 h), 0.18 µM.

In the case of `Cc1nnc2n1-c1sc(C#CCCO)c(Cc3ccccc3)c1CO[C@H]2C` [Cpd. No. 113, (S)-4-(3-benzyl-6,9-dimethyl-4H,6H-thieno[2,3-e][1,2,4]triazolo[3,4-c][1,4]oxazepin-2-yl)but-3-yn-1-ol], the IC50 on recombinant BRD4 BD1 (setting [3]) is 26.9 nM and 40 nM; at recombinant BRD4 BD2, 146 nM and 149 nM; with RS4-11 it was 0.45 µM; in the assay with RS4-11 (Homo sapiens, RS4-11, 96 h), 0.24 µM.
